According to US10022373B2, “Posaconazole pharmaceutical compositions and preparation methods, uses and pharmaceutical formulations thereof” (SINOTHERAPEUTICS INC., priority 2014, dated 2018):
Read-outs that look alike come from different tables or passages of the source.

Tests used:
[1] = Apparent solubility in phosphate buffer solution pH 6.8; format: physicochemical
Procedure: Weighting an excess amount of posaconazole pharmaceutical composition into a container, adding phosphate buffer solution (pH 6.8, about ⅔ of the volume of the container), and then placing the container in a shaking table at 37° C., and shaking for 3 h. Filtering the content with a 0.45 μm filter membrane, collecting the filtrate, diluting it with an appropriate amount of methanol, vortex mixing, and then determining the concentration of posaconazole via the following HPLC method: […]

[2] = Dissolution rate, USP II paddle method, simulated in vivo condition; format: physicochemical; settings: medium conversion pH 1.2→6.8
Procedure: Analytical method for dissolution samples: the same as the HPLC method in the above assay of apparent solubility.
It was reported that the pH value in human stomach was about 1.2, and that in human intestine was about 6.8. The dissolution of each of the pharmaceutical compositions of the present invention was determined under a stimulated in vivo condition, and the results are shown in Table 1-3.

[3] = cited from earlier work

## CC[C@@H]([C@H](C)O)n1ncn(-c2ccc(N3CCN(c4ccc(OC[C@@H]5CO[C@@](Cn6cncn6)(c6ccc(F)cc6F)C5)cc4)CC3)cc2)c1=O [API, 4-[4-[4-[4-[[(3R,5R)-5-(2,4-difluorophenyl)-5-(1,2,4-triazole-1-ylmethyl)oxolan-3-yl]methoxy]phenyl]piperazin-1-yl]phenyl]-2-[(2S,3S)-2-hydroxypentan-3-yl]-1,2,4-triazol-3-one]
[1]; aqueous buffer, thermodynamic from solid, phosphate buffer solution pH 6.8, 37° C., shaking 3 h
  solubility at 3 h: < 1 µg/mL
[1]; phosphate buffer solution pH 6.8
  Apparent solubility ratio (composition/API): 1
[2]; pH 1.2, 5 min
  Dissolution: 89.0%
[2]; pH 1.2, 10 min
  Dissolution: 87.0%
[2]; pH 1.2, 30 min
  Dissolution: 98.7%
[2]; pH 6.8, 60 min
  Dissolution: 7.1%
[2]; pH 6.8, 120 min
  Dissolution: 5.6%
[2]; pH 6.8, 180 min
  Dissolution: 5.6%
[3]; free base form, environment of the stomach pH=˜1.2
  Solubility: about 0.8 mg/ml
[3]; pH higher than 4
  Solubility: < 1 µg/mL
